The source of these data is ChEMBL document CHEMBL1201862, “PubChem BioAssay data set” (2004).

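Cells were grown in 96-well plates and exposed to each compound for 48 hours at five concentrations; endpoints were interpolated linearly between bracketing concentrations, or set to the highest concentration if not reached. The concentration for 50% growth inhibition is given as GI50.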 Activity calls are given as the source filed them. Cut-off read from the data, not from the text of the source: active = GI50 up to about 1.1 µM and inactive = higher.

Among the test systems are 786-0; A549; CAKI-1; CCRF-CEM; HT-29; IGROV-1; K562; KM12; M14; NCI-H226; NCI-H23; RPMI-8226; SF-295; SK-OV-3; SNB-19; SNB-75; U-251; UACC-257; SF-268.
Common to all, as to assay: NCI tumour cell line growth inhibition, 48 h

Consider `Cc1ccc(C2C(Cl)C(=O)N2NC(=O)c2ccc(N)cc2)cc1` (stereo not drawn), for which the GI50 with 786-0 is 15.5 µM (inactive); with A549, 27.7 µM (inactive); with CAKI-1, 20.1 µM (inactive); in the assay with CCRF-CEM it was 7.73 µM (inactive); with HT-29 it was 21.2 µM (inactive); in the assay on IGROV-1, 8.97 µM (inactive). Moreover, the GI50 was 22.5 µM (inactive) in the assay with K562; 25.5 µM (inactive) in the assay with KM12; 18.7 µM (inactive) with M14; 27.4 µM (inactive) in the assay with NCI-H226; 16 µM (inactive) in the assay on NCI-H23; 24.2 µM (inactive) in the assay on RPMI-8226. For the same molecule, the GI50 was 20.3 µM (inactive) in the assay with SF-295; 20.1 µM (inactive) in the assay with SK-OV-3; 18.4 µM (inactive) with SNB-19; 47.6 µM (inactive) in the assay on SNB-75; 14.6 µM (inactive) with U-251; 24.3 µM (inactive) in the assay with UACC-257.

For `CSc1nc(=O)n(CCC#N)nc1SC`, the GI50 with 786-0 is 25.3 µM (inactive); in the assay with A549, > 100 µM (inactive); in the assay with CAKI-1, > 100 µM (inactive); with HT-29 it was 51.6 µM (inactive); with IGROV-1 it was > 100 µM (inactive); with K562, 25.6 µM (inactive). Further, the GI50 with KM12 is > 100 µM (inactive); in the assay on M14, 18.7 µM (inactive); in the assay on NCI-H226 it was 39.3 µM (inactive); in the assay with NCI-H23, 55.3 µM (inactive); in the assay on RPMI-8226, 22.8 µM (inactive); with SF-268, 27.9 µM (inactive). For the same molecule, the GI50 was > 100 µM (inactive) in the assay on SF-295; > 100 µM (inactive) in the assay with SK-OV-3; > 100 µM (inactive) in the assay on SNB-19; 51.5 µM (inactive) in the assay with SNB-75; > 100 µM (inactive) in the assay with U-251; > 10 µM (inactive) in the assay with UACC-257.

Consider `[O-]/N=[N+](/[O-])C1CCCCC1=[N+]1CCOCC1` (stereo not drawn), for which the GI50 with 786-0, in the assay with A549, with CAKI-1, in the assay on CCRF-CEM, in the assay on HT-29 and in the assay with K562 was > 100 µM (inactive) in each case. Besides, the GI50 in the assay on KM12, in the assay on M14, in the assay with NCI-H226, in the assay on NCI-H23, in the assay with RPMI-8226 and in the assay on SF-268 was > 100 µM (inactive) in each case. Further, the GI50 in the assay with SF-295, with SK-OV-3, with SNB-19, with U-251 and in the assay on UACC-257 was > 100 µM (inactive) each time.

As to `COC(=O)c1cc(CC(C)C)c2c(c1)[nH]c1ccccc12`, the GI50 in the assay on 786-0, with A549, with CAKI-1, in the assay with CCRF-CEM, in the assay with HT-29 and with IGROV-1 was > 100 µM (inactive) throughout. Besides, the GI50 is 15.9 µM (inactive) with K562; 91.2 µM (inactive) in the assay with KM12; > 100 µM (inactive) in the assay on M14; 28.7 µM (inactive) in the assay with NCI-H226; 49 µM (inactive) with NCI-H23; > 100 µM (inactive) in the assay with SF-268. In addition, the GI50 with SF-295 is > 100 µM (inactive); with SK-OV-3 it was > 100 µM (inactive); with SNB-19 it was > 100 µM (inactive); in the assay with SNB-75 it was 18.2 µM (inactive); with U-251 it was > 100 µM (inactive); in the assay on UACC-257, > 10 µM (inactive).

With `CC(C)OP(=O)(OC(C)C)/C(=N/Nc1ccc([N+](=O)[O-])cc1)NN`, the GI50 in the assay on 786-0 is > 100 µM (inactive); in the assay with A549, 75.3 µM (inactive); in the assay on CAKI-1, > 100 µM (inactive); in the assay on CCRF-CEM, > 100 µM (inactive); with K562, 65.9 µM (inactive); in the assay on KM12, > 100 µM (inactive). For the same molecule, the GI50 in the assay on M14 is > 100 µM (inactive); with NCI-H226 it was 0.592 µM (active); in the assay with NCI-H23, 55.2 µM (inactive); in the assay on RPMI-8226, 88.3 µM (inactive); in the assay with SF-268, > 100 µM (inactive); with SNB-19, > 100 µM (inactive). The values for the GI50 in the assay with SNB-75, in the assay on U-251 and in the assay on UACC-257 were 83.2 µM (inactive), > 100 µM (inactive) and 24.9 µM (inactive), respectively.

`Nc1cc(CO)cc(Nc2nc3ccc(Cl)cc3c3[nH]c4ccccc4c23)c1`: the GI50 is 1.98 µM (inactive) in the assay with 786-0; 3.2 µM (inactive) in the assay with A549; 2.69 µM (inactive) in the assay with CAKI-1; 4.79 µM (inactive) with CCRF-CEM; 3.64 µM (inactive) in the assay on HT-29; 1.54 µM (inactive) in the assay with IGROV-1. Also, the GI50 with K562 is 4.67 µM (inactive); in the assay on KM12 it was 4.98 µM (inactive); in the assay on M14 it was 4.98 µM (inactive); with NCI-H23 it was 6.28 µM (inactive); in the assay with RPMI-8226, 2.96 µM (inactive); in the assay on SF-268, 2.86 µM (inactive). Also, the GI50 with SF-295 was 3.56 µM (inactive); with SK-OV-3, 3.24 µM (inactive); in the assay with SNB-19, 4.32 µM (inactive); with U-251, 3.05 µM (inactive); with UACC-257, 10.7 µM (inactive).

Turning to `Cc1ccc(NCC2(/N=C/c3ccccc3)OC(CO)C(O)C2O)cc1` (stereo not drawn), the GI50 in the assay on 786-0 is 49.5 µM (inactive); in the assay with A549, 44 µM (inactive); in the assay with CAKI-1 it was 46.6 µM (inactive); in the assay on CCRF-CEM, 31.6 µM (inactive); in the assay with HT-29, 35.8 µM (inactive); in the assay with IGROV-1, > 100 µM (inactive). For the same molecule, the GI50 with K562 is 27.9 µM (inactive); with KM12 it was 67.9 µM (inactive); in the assay on M14, 40.9 µM (inactive); in the assay on NCI-H226, > 100 µM (inactive); with NCI-H23, 54.1 µM (inactive); in the assay on RPMI-8226 it was 35 µM (inactive). In addition, the GI50 in the assay with SF-268 is 81.1 µM (inactive); in the assay on SF-295 it was 24.3 µM (inactive); in the assay with SNB-19, > 100 µM (inactive); in the assay with SNB-75, 26.2 µM (inactive); in the assay with U-251 it was 24.2 µM (inactive); in the assay on UACC-257, > 100 µM (inactive).

For `Cc1ccc(OCC2OC(n3cnc4c(N(C)C)nc(Br)nc43)CC2Oc2ccc(C)cc2)cc1` (stereo not drawn), the GI50 with 786-0, in the assay on A549, in the assay with CAKI-1, in the assay with CCRF-CEM, in the assay on HT-29 and in the assay with IGROV-1 was > 100 µM (inactive) throughout. Besides, the GI50 with K562 was > 100 µM (inactive); with KM12, > 100 µM (inactive); in the assay on M14, > 100 µM (inactive); in the assay with NCI-H226, > 100 µM (inactive); in the assay on NCI-H23, > 100 µM (inactive); in the assay on RPMI-8226, 58.2 µM (inactive). For the same molecule, the GI50 in the assay on SF-268, with SF-295, in the assay with SK-OV-3, in the assay with SNB-19, with U-251 and in the assay with UACC-257 was > 100 µM (inactive) in each case.

On to `NC1c2c(Br)sc(N3CCCC3)c2C(=O)C1O` (stereo not drawn), for which the GI50 in the assay on 786-0, in the assay on A549, in the assay on CAKI-1, in the assay on CCRF-CEM, in the assay on HT-29 and in the assay on IGROV-1 was > 50 µM (inactive) in each case. The GI50 in the assay on K562, in the assay with KM12, in the assay on M14, in the assay with NCI-H226, in the assay with NCI-H23 and in the assay on SF-268 was > 50 µM (inactive) throughout. Besides, the GI50 in the assay with SF-295, in the assay on SK-OV-3, in the assay on SNB-19, in the assay with SNB-75, in the assay on U-251 and in the assay on UACC-257 was > 50 µM (inactive) each time.

Consider `C=C(C[C@@H](O)[C@H](C)NC(=O)OCc1ccccc1)C(=O)OC(C)(C)C`, for which the GI50 was > 100 µM (inactive) in the assay with A549; 53.6 µM (inactive) in the assay with CAKI-1; 17.3 µM (inactive) in the assay with CCRF-CEM; > 100 µM (inactive) in the assay on HT-29; > 100 µM (inactive) with IGROV-1; 35.9 µM (inactive) in the assay with K562. Also, the GI50 with KM12 was > 100 µM (inactive); in the assay with M14, > 100 µM (inactive); in the assay with NCI-H226, > 100 µM (inactive); with NCI-H23, 45.6 µM (inactive); in the assay on RPMI-8226, 29.8 µM (inactive); with SF-268 it was > 100 µM (inactive). For the same molecule, the GI50 is 89.1 µM (inactive) with SF-295; > 100 µM (inactive) with SK-OV-3; > 100 µM (inactive) in the assay with SNB-19; 79.8 µM (inactive) in the assay on SNB-75; > 100 µM (inactive) in the assay on U-251; 32.1 µM (inactive) with UACC-257.

On to `Cc1cccc(N(CCC#N)S(=O)(=O)c2ccccc2)c1`, for which the GI50 with 786-0, in the assay on A549, in the assay on CAKI-1, in the assay on CCRF-CEM, in the assay with HT-29 and with IGROV-1 was > 100 µM (inactive) in each case. For the same molecule, the GI50 in the assay on K562, in the assay with KM12, with M14, in the assay on NCI-H226, in the assay with NCI-H23 and in the assay with RPMI-8226 was > 100 µM (inactive) throughout. For the same molecule, the GI50 in the assay on SF-268, with SK-OV-3, in the assay with SNB-19, with SNB-75, in the assay with U-251 and with UACC-257 was > 100 µM (inactive) throughout.
